The source of these data is patent US20080021071A1, “3-{4-(Pyridin-3-Yl) Phenyl}-5-(1H-1,2,3-Triazol-1-Ylmethyl)-1,3-Oxazolidin-2-Ones as Antibacterial Agents” (ASTRAZENECA AB, priority 2004, published 2008).

One data set relates to Haemophilus influenzae. The experiment in a line: MIC, Haemophilus influenzae. The data set is classed as cell-based. How it is done:
(§1) The following results were obtained on a standard in-vitro test system. The activity is described in terms of the minimum inhibitory concentration (MIC) determined by the agar-dilution technique with an inoculum size of 10^4 CFU/spot. Typically, compounds are active in the range 0.01 to 256 μg/ml.
(§2) Streptococci and enterococci were tested on agar supplemented with 5% defibrinated horse blood, an inoculum of 10^4 CFU/spot and an incubation temperature of 37° C. in an atmosphere of 5% carbon dioxide for 48 hours—blood is required for the growth of some of the test organisms. Fastidious Gram negative organisms were tested in Mueller-Hinton broth, supplemented with hemin and NAD, grown aerobically for 24 hours at 37° C., and with an innoculum of 5×10^4 CFU/well.

The next data set addresses T1, MAO-A (Homo sapiens, UniProt P21397).
T1 construct: made in house; host or cells: yeast
T1 sequence (P21397 1-527): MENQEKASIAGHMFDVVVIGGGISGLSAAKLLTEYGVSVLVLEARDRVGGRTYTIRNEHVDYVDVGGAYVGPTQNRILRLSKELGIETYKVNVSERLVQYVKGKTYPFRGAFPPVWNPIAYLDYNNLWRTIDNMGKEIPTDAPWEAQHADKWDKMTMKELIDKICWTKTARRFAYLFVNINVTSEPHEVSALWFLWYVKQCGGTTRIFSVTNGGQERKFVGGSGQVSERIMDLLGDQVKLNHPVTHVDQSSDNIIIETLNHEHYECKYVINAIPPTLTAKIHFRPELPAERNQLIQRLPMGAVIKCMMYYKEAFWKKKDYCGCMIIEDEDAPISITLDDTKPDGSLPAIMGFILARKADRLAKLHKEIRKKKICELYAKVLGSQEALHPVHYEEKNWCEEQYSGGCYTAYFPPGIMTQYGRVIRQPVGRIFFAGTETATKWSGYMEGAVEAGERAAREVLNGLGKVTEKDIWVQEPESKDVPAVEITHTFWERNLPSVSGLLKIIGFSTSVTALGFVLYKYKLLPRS
The experiment in a line: MAO-A inhibition, standard in-vitro assay, human liver enzyme expressed in yeast. Format: biochemical. The method, then:
The activity of the compounds of the invention against MAO-A was tested using a standard in-vitro assay based on human liver enzyme expressed in yeast as described in Biochem. Biophys. Res. Commun. 1991, 181, 1084-1088. Compounds of the invention typically give Ki values of >5 μM when measured in such an assay as above.

The next data set relates to Streptococcus pneumoniae. The experiment in a line: MIC, Streptococcus pneumoniae. The data set is classed as cell-based. How it is done: as §1, §2
Data set [1] has as its system Staphylococcus aureus MRQR. The experiment in a line: MIC, agar-dilution, Staphylococcus aureus MRQR. Format: cell-based. The conditions noted are these: Staphylococcus aureus MRQR (methicillin resistant and quinolone resistant). The method, then: as §1
(§3) Staphylococci were tested on agar, using an inoculum of 10^4 CFU/spot and an incubation temperature of 37° C. for 24 hours—standard test conditions for the expression of methicillin resistance.

For data set [2], the system named is Linezolid Resistant Streptococcus pneumoniae. The experiment in a line: MIC, Linezolid Resistant Streptococcus pneumoniae. Format: cell-based. How it is done: as §1, §2
For data set [3], the system named is Staphylococcus aureus MSQS. The experiment in a line: MIC, agar-dilution, Staphylococcus aureus MSQS. The data set is classed as cell-based. Conditions: Staphylococcus aureus MSQS (methicillin sensitive and quinolone sensitive). The method, then: as §1, §3
Data set [4] in a line: equilibrium solubility in pH 7.4 phosphate buffer. Conditions: aqueous buffer, thermodynamic from solid. Format: physicochemical. The source says: It will be understood that parameters such as solubility may be measured by any suitable technique known in the art.

Structures are written as SMILES. In brackets after ≈: the same amount, converted by molar mass. Structures can show the parent of a compound that is named as a salt.

For `O=C1O[C@@H](Cn2ccnn2)CN1c1ccc(-c2ccc(C(O)CN3CCOCC3)nc2)c(F)c1` (stereo partly drawn) (as salt: hydrochloride) [Example 1, (5R)-3-{3-Fluoro-4-[6-(1-hydroxy-2-morpholin-4-ylethyl)pyridin-3-yl]phenyl}-5-(1H-1,2,3-triazol-1-ylmethyl)-1,3-oxazolidin-2-one], the melting point was > 194 °C (dec.).

Take `CN(C)CC(O)c1ccc(-c2ccc(N3C[C@H](Cn4ccnn4)OC3=O)cc2F)cn1` (stereo partly drawn) (as salt: hydrochloride) [Example 2, (5R)-3-(4-{6-[2-(Dimethylamino)-1-hydroxyethyl]pyridin-3-yl}-3-fluorophenyl)-5-(1H-1,2,3-triazol-1-ylmethyl)-1,3-oxazolidin-2-one]: the melting point was > 115 °C (dec.).

As to `CC(C)NCC(O)c1ccc(-c2ccc(N3C[C@H](Cn4ccnn4)OC3=O)cc2F)cn1` (stereo partly drawn) (as salt: hydrochloride) [Example 3, (5R)-3-(3-Fluoro-4-{6-[1-hydroxy-2-(isopropylamino)ethyl]pyridin-3-yl}phenyl)-5-(1H-1,2,3-triazol-1-ylmethyl)-1,3-oxazolidin-2-one], the melting point is > 170 °C (dec.).

For the compound `O=C1O[C@@H](Cn2ccnn2)CN1c1ccc(-c2ccc(C(O)CN3CCOCC3)nc2)c(F)c1` (stereo partly drawn) [Example 1, (5R)-3-{3-Fluoro-4-[6-(1-hydroxy-2-morpholin-4-ylethyl)pyridin-3-yl]phenyl}-5-(1H-1,2,3-triazol-1-ylmethyl)-1,3-oxazolidin-2-one], the MIC in the data set on Haemophilus influenzae amounted to 4 µg/mL (≈ 8.54 µM); in the data set with Streptococcus pneumoniae it was 0.25 µg/mL (≈ 0.534 µM); in data set [1], 1 µg/mL (≈ 2.13 µM); in data set [2], 2 µg/mL (≈ 4.27 µM); in data set [3] it was 1 µg/mL (≈ 2.13 µM). On MAO-A, this compound gave a Ki of 94 µM.

Consider `O=C1O[C@@H](Cn2ccnn2)CN1c1ccc(-c2ccc(C(O)CO)nc2)c(F)c1` (stereo partly drawn) [Example 4, (5R)-3-{4-[6-(1,2-Dihydroxyethyl)pyridin-3-yl]-3-fluorophenyl}-5-(1H-1,2,3-triazol-1-ylmethyl)-1,3-oxazolidin-2-one], for which the melting point amounted to 175 °C. Also, affinity at MAO-A was put at a Ki of 48 µM. This compound gave a thermodynamic solubility in data set [4] of 210 µM (≈ 83.9 µg/mL).

Turning to `CC(C)(O)c1ccc(-c2ccc(N3C[C@H](Cn4ccnn4)OC3=O)cc2F)cn1` [Example 5, (5R)-3-{3-Fluoro-4-[6-(1-hydroxy-1-methylethyl)pyridin-3-yl]phenyl}-5-(1-1,2,3-triazol-1-ylmethyl)-1,3-oxazolidin-2-one], the melting point came to 180 °C.

`CN(Cc1ccc(-c2ccc(N3C[C@H](Cn4ccnn4)OC3=O)cc2F)cn1)CC(O)CO` (stereo partly drawn) [Example 6, (5R)-3-[4-(6-{[(2,3-Dihydroxypropyl)(methyl)amino]methyl}pyridin-3-yl)-3-fluorophenyl]-5-(1-1,2,3-triazol-1-ylmethyl)-1,3-oxazolidin-2-one] returned a melting point of 123 °C.

In turn, `CN(CCO)Cc1ccc(-c2ccc(N3C[C@H](Cn4ccnn4)OC3=O)cc2F)cn1` [Example 7, (5R)-3-[3-Fluoro-4-(6-{[(2-hydroxyethyl)(methyl)amino]methyl}pyridin-3-yl)phenyl]-5-(1H-1,2,3-triazol-1-ylmethyl)-1,3-oxazolidin-2-one] displayed a melting point of 137 °C.

`CN(C)Cc1ccc(-c2ccc(N3C[C@H](Cn4ccnn4)OC3=O)cc2F)cn1` [Example 8] gave a melting point of 160 °C. Further, the affinity on MAO-A, expressed as Ki, was 15 µM.

`O=C1O[C@@H](Cn2ccnn2)CN1c1ccc(-c2ccc(CN3CCOCC3)nc2)c(F)c1` [Example 9, (5R)-3-{3-Fluoro-4-[6-(morpholin-4-ylmethyl)pyridin-3-yl]phenyl}-5-(1H-1,2,3-triazol-1-ylmethyl)-1,3-oxazolidin-2-one] registered a melting point of 175 °C.

In the case of `C[C@@H](O)c1ccc(-c2ccc(N3C[C@H](Cn4ccnn4)OC3=O)cc2F)cn1` [Example 10, (5R)-3-(3-Fluoro-4-{6-[(1R)-1-hydroxyethyl]pyridin-3-yl}phenyl)-5-(1H-1,2,3-triazol-1-ylmethyl)-1,3-oxazolidin-2-one], the melting point worked out at 190 °C.

Regarding `C[C@H](O)c1ccc(-c2ccc(N3C[C@H](Cn4ccnn4)OC3=O)cc2F)cn1` [Example 11, (5R)-3-(3-Fluoro-4-{6-[(1S)-1-hydroxyethyl]pyridin-3-yl}phenyl)-5-(1H-1,2,3-triazol-1-ylmethyl)-1,3-oxazolidin-2-one], the melting point was 183 °C.

The compound `O=C(OCc1ccc(-c2ccc(N3C[C@H](Cn4ccnn4)OC3=O)cc2F)cn1)N1CCOCC1` [Example 13, (5-{2-Fluoro-4-[(5R)-2-oxo-5-(1H-1,2,3-triazol-1-ylmethyl)-1,3-oxazolidin-3-yl]phenyl}pyridin-2-yl)methyl morpholine-4-carboxylate] displayed a melting point of 131 to 133 °C.

For `CC(=O)CC(O)c1ccc(-c2ccc(N3C[C@H](Cn4ccnn4)OC3=O)cc2F)cn1` (stereo partly drawn) [Example 14, (5R)-3-{3-Fluoro-4-[6(1-hydroxy-3-oxobutyl)pyridin-3-yl]phenyl}-5-(1H-1,2,3-triazol-1-ylmethyl)-1,3-oxazolidin-2-one], the melting point lay within 130 to 135 °C.

As for `O=C1O[C@@H](Cn2ccnn2)CN1c1ccc(-c2ccc(C(O)C3CC3)nc2)c(F)c1` (stereo partly drawn) [Example 16, (5R)-3-(4-{6-[Cyclopropyl(hydroxy)methyl]pyridin-3-yl}-3-fluorophenyl)-5-(1H-1,2,3-triazol-1-ylmethyl)-1,3-oxazolidin-2-one], the melting point was 160 to 163 °C.

`Cc1cnc(C)n1CC(O)c1ccc(-c2ccc(N3C[C@H](Cn4ccnn4)OC3=O)cc2F)cn1` (stereo partly drawn) [Example 20, (5R)-3-(4-{6-[2-(2,5-Dimethyl-1H-imidazol-1-yl)-1-hydroxyethyl]pyridin-3-yl}-3-fluorophenyl)-5-(1H-1,2,3-triazol-1-ylmethyl)-1,3-oxazolidin-2-one]: the melting point lay within 195 to 200 °C.

Consider `N#Cc1ccc(-c2ccc(N3C[C@H](Cn4ccnn4)OC3=O)cc2F)cn1` [Ref Example 1, 5-{2-Fluoro-4-[(5R)-2-oxo-5-(1H-1,2,3-triazol-1-ylmethyl)-1,3-oxazolidin-3-yl]phenyl}pyridine-2-carbonitrile], for which the Ki at MAO-A is < 0.3 µM.

`Cc1ccc(-c2ccc(N3C[C@H](Cn4ccnn4)OC3=O)cc2F)cn1` [Ref Example 2, (5R)-3-[3-Fluoro-4-(6-methylpyridin-3-yl)phenyl]-5-(1H-1,2,3-triazol-1-ylmethyl)-1,3-oxazolidin-2-one] gave a Ki on MAO-A of 0.6 µM. In other words, the sub-micromolar range.

Compound `O=C1O[C@@H](Cn2ccnn2)CN1c1ccc(-c2ccc(CO)nc2)c(F)c1` [Ref Example 3, (5R)-3-{3-Fluoro-4-[6-(hydroxymethyl)pyridin-3-yl]phenyl}-5-(1H-1,2,3-triazol-1-ylmethyl)-1,3-oxazolidin-2-one] had a melting point of 177 °C. The same compound came in with a Ki on MAO-A of 4.8 µM.

`O=C1O[C@@H](Cn2ccnn2)CN1c1ccc(-c2cccnc2)c(F)c1` [Ref Example 4, (5R)-3-(3-Fluoro-4-pyridin-3-ylphenyl)-5-(1H-1,2,3-triazol-1-ylmethyl)-1,3-oxazolidin-2-one]: the Ki on MAO-A was < 0.3 µM.

On to `Cc1cn(C[C@H]2CN(c3ccc(-c4ccc(C#N)nc4)c(F)c3)C(=O)O2)nn1` [Ref Example 7, 5-(2Fluoro-4-{(5R)-5-[(4-methyl-1H-1,2,3-triazol-1-yl)methyl]-2-oxo-1,3-oxazolidin-3-yl}phenyl)pyridine-2-carbonitrile], for which the melting point lay within 210 to 212 °C. The inhibitory constant (Ki) on MAO-A turned out to be 3.65 µM.

As for `Cn1nnc(-c2ccc(-c3ccc(N4C[C@H](Cn5ccnn5)OC4=O)cc3F)cn2)n1` [Reference Example 6, (5R)-3-(3-Fluoro-4-(6-(2-methyl-2H-tetrazol-5-yl)pyrid-3-yl)phenyl)-5-(1H-1,2,3-triazol-1-ylmethyl)-1,3-oxazolidin-2-one, reference compound], the solubility (thermodynamic) in data set [4] was < 7.1 µM.

A word on the melting point: it is the temperature, or range, at which the solid turns liquid. One may read the Ki as a dissociation constant, usually derived from enzyme kinetics or from competition with a known ligand. Usually solubility (thermodynamic) stands for solubility found after equilibrating the solid with the medium.
